One data set deals with T-tropic HIV. The note with it: patients dual tropic or with only the T-tropic form of the virus; cited from earlier work.
A further data set has as its system HIV. Kind of data set: HOS HIV infectivity assay (Table 2, strain not given). It is filed as cell-based. The note with it: Human immunodeficiency virus 1, read-out: Activity Level. In outline:
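HOS cells expressing hCXCR4/hCCR5/hCD4 and an HIV-LTR-luciferase reporter were preincubated with compound for 1 h in DMEM/2% FCS. They were then infected with HIV-1 Ba-L or IIIB (about 2 million RLU/well) for 96 h at 37° C. Infection was read by luciferase luminescence, and viability in uninfected cultures by CellTiter-Glo.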

The test system of another data set is HIV-1 IIIB. In words: HOS HIV-1 infectivity assay, IIIB strain. It is filed as cell-based. The note with it: Human immunodeficiency virus 1; HOS cells, HIV-1 IIIB (T-tropic, CXCR4 utilizing), 96 h; read-out: HOS (3B). As for the experimental part:
HOS HIV-1 Infectivity Assay
(§1) Compounds were profiled against two HIV-1 viruses, the M-tropic (CCR5 utilizing) Ba-L strain and the T-tropic (CXCR4 utilizing) IIIB strain. Both viruses were propagated in human peripheral blood lymphocytes. Compounds were tested for there ability to block infection of the HOS cell line (expressing hCXCR4/hCCR5/hCD4/pHIV-LTR-luciferase) by either HIV-1 Ba-L or HIV-1 IIIB. Compound cytotoxicity was also examined in the absence of virus addition.
HOS HIV-1 Infectivity Assay Format
(§2) HOS cells (expressing hCXCR4/hCCR5/hCD4/pHIV-LTR-luciferase) were harvested and diluted in Dulbeccos modified Eagles media supplemented with 2% FCS and non-essential amino acid to a concentration of 60,000 cells/ml. The cells were plated into 96-well plates (100 ul per well) and the plates were placed in a tissue culture incubator (37° C.; 5% CO2/95% air) for a period of 24 h.
(§3) Subsequently, 50 ul of the desired drug solution (4 times the final concentration) was added to each well and the plates were returned to the tissue culture incubator (37° C.; 5% CO2/95% air) for 1 h. Following this incubation 50 ul of diluted virus was added to each well (approximately 2 million RLU per well of virus). The plates were returned to the tissue culture incubator (37° C.; 5% CO2/95% air) and were incubated for a further 96 h.
(§4) Following this incubation the endpoint for the virally infected cultures was quantified following addition of Steady-Glo Luciferase assay system reagent (Promega, Madison, Wis.). Cell viability or non-infected cultures was measured using a CellTiter-Glo luminescent cell viability assay system (Promega, Madison, Wis.). All luminescent readouts are performed on a Topcount luminescence detector (Packard, Meridien, Conn.).

The next data set concerns the target T1, human CXCR4 (Homo sapiens, UniProt P61073).
T1 construct: expressed in transfected cells; host or cells: HEK-293 cells (stably expressing human macrophage scavenger receptor class A type 1), transduced with human CXCR4 BacMam and Gqi5 BacMam baculoviruses
In words: Functional FLIPR assay (block of SDF-1 alpha induced [Ca2+]i change). It is filed as cell-based. The note with it: HEK-293 cells with human CXCR4 and Gqi5 BacMam; antagonism of SDF-1 alpha; read-out: Functional assay (pIC50) (converted). The protocol:
Human embryonic kidney (HEK-293) cells were maintained and harvested as described above. Cells were plated in 96-well, black clear bottom, poly-lysine coated plates at a concentration of 40,000 cells per well in a final volume of 100 ul containing human CXCR4 BacMam (MOI=25) and Gqi5 BacMam (MOI=12.5). The cells were incubated at 37° C., 5% CO2, 95% humidity for 24 h to allow for protein expression.
After the required incubation time the cells were washed once with 50 ul of fresh serum-free DMEM/F12 media containing probenicid. 50 ul of dye solution was then added to the cells (Calcium Plus Assay Kit Dye; Molecular Devices) was dissolved in 200 ml of the above probenicid/BSA containing media and incubated for 1 h. Cell plates were transferred to a Fluorometric Imaging Plate Reader (FLIPR). Upon addition the effect of the compounds on the change in [Ca^2+]i was examined to determine if the compounds were agonists or antagonists (ability to block SDF-1 alpha activity) at the CXCR4 receptor. IC50 values are determined and pKb values are calculated using the Leff and Dougall equation: KB=IC50/((2+([agonist]/EC50ˆb)ˆ1/b−1) Where IC50 is that defined by the antagonist concentration-response curve [agonist] is the EC80 concentration of agonist used EC50 is that defined by the agonist concentration-response curve b is the slope of the agonist concentration-response curve.

Data set [1] in a line: Compound cytotoxicity in the absence of virus (CellTiter-Glo). It is filed as cell-based. The note with it: human; HOS cells, no virus; read-out: Cytotox (pIC50) (converted). As for the experimental part: as §1, §2, §3, §4
On the technique in general: ATP-based viability assays read luminescence as a measure of living cells.

Data set [2] has as its system HOS (hCXCR4/hCCR5/hCD4/pHIV-LTR-luciferase) cells and HEK-293 cells expressing HIV-1 gp160 (HXB2 strain). Kind of data set: Cell/cell fusion assay (luciferase). It is filed as cell-based. The note with it: Homo sapiens, HEK293; 24 h, luciferase readout; read-out: Fusion assay (pIC50) (converted). The text has this:
The complete coding sequences of HIV-1 tat (GenBank Accession No. X07861) and rev (GenBank Accession No. M34378) were cloned into pcDNA3.1 expression vectors containing G418 and hygromycin resistance genes, respectively. The complete coding sequence of the HIV-1 (HXB2 strain) gp160 envelope gene (nucleotide bases 6225-8795 of GenBank Accession No. K03455) was cloned into plasmid pCRII-TOPO. The three HIV genes were additionally inserted into the baculovirus shuttle vector, pFastBacMam1, under the transcriptional control of the CMV promoter. A construction of the pHIV-I LTR containing mutated NFkB sequences linked to the luciferase reporter gene was prepared by digesting pcDNA3.1, containing the G418 resistance gene, with Nru I and Bam HI to remove the CMV promoter. LTR-luc was then cloned into the Nru I/Bam HI sites of the plasmid vector. Plasmid preparations were performed after the plasmids were amplified in Escherichia coli strain DH5-alpha. The fidelity of the inserted sequences was confirmed by double-strand nucleotide sequencing using an ABI Prism Model 377 automated sequencer.
BacMam Baculovirus Generation
Recombinant BacMam baculoviruses were constructed from pFastBacMam shuttle plasmids by using the bacterial cell-based Bac-to-Bac system. Viruses were propagated in Sf9 (Spodoptera frugiperda) cells cultured in Hink's TNM-FH Insect media supplemented with 10% (v/v) fetal bovine serum and 0.1% (v/v) pluronic F-68 according to established protocols.
Human osteosarcoma (HOS) cells that naturally express human CXCR4 were transfected with human CCR5, human CD4 and the pHIV-LTR-luciferase plasmid using FuGENE 6 transfection reagent. Single cells were isolated and grown under selection condition in order to generate a stable HOS (hCXCR4/hCCR5/hCD4/pHIV-LTR-luciferase) clonal cell line. The cells were maintained in Dulbeccos modified Eagles media supplemented with 10% fetal calf serum (FCS), G418 (400 ug/ml), puromycin (1 ug/ml), mycophenolic acid (40 ug/ml), xanthine (250 ug/ml) and hypoxanthine (13.5 ug/ml) to maintain a selection pressure for cells expressing the LTR-luciferase, hCCR5 and hCD4, respectively. Human embryonic kidney (HEK-293) cells stably transfected to express the human macrophage scavenging receptor (Class A, type 1; GenBank Accession No. D90187), were maintained in DMEM/F-12 media (1:1) supplemented with 10% FCS and 1.5 ug/ml puromycin. The expression of this receptor by the HEK-293 cells enhances their ability to stick to tissue culture treated plasticware.
Transduction of HEK-293 cells
HEK-293 cells were harvested using enzyme-free cell dissociation buffer. The cells were resuspended in DMEM/F-12 media supplemented with 10% FCS and 1.5 ug/ml and counted. Tranductions were performed by direct addition of BacMam baculovirus containing insect cell media to cells. The cells were simultaneously transduced with BacMam baculovirus expressing HIV-1 tat, HIV-1 rev and HIV-1 gp160 (from the HXB2 HIV strain). Routinely an MOI of 10 of each virus was added to the media containing the cells. 2 mM butyric acid was also added to the cells at this stage to increase protein expression in transduced cells. The cells were subsequently mixed and seeded into a flask at 30 million cells per T225. The cells were incubated at 37° C., 5% CO2, 95% humidity for 24 h to allow for protein expression.
Cell/Cell Fusion Assay Format
HEK and HOS cells were harvested in DMEM/F-12 media containing 2% FCS and DMEM media containing 2% FCS, respectively, with no selection agents added. Compounds were plated as 1 ul spots in 100% DMSO on a 96-well CulturPlate plates. HOS cells (50 ul) were added first to the wells, followed immediately by the HEK cells (50 ul). The final concentration of each cell type was 20,000 cells per well. Following these additions, the cells were returned to a tissue culture incubator (37° C.; 5% CO2/95% air) for an additional 24 h.
Measurement of Luciferase Production […]

Some results are limits rather than exact numbers.

Results on 3 compounds are retold here after patent US20070232615A1, “Chemical Compounds” (priority 2004, published 2007).

T1 sequence (P61073 whole entry): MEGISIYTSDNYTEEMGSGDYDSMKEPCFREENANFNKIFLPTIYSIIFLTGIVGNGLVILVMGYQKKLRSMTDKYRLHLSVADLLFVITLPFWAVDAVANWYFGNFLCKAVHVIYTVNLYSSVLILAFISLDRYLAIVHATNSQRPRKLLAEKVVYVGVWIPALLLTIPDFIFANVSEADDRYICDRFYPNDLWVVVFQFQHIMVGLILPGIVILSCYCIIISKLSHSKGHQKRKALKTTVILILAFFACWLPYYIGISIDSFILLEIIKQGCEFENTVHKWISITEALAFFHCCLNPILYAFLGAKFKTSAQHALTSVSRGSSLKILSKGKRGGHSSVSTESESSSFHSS

With `c1cc(CN2CCCNCCNCCCNCC2)ccc1CN1CCCNCCNCCCNCC1` [AMD-3100], the “T-tropic HIV viral load” value with T-tropic HIV is given as “significantly reduce T-tropic HIV viral load”.

In the case of `CN(C)Cc1ccc(-c2cccc3nc(CN(C)C4CCCc5cccnc54)cn23)cc1` (centres unmarked) [Example 18, N-[(5-{4-[(Dimethylamino)methyl]phenyl}imidazo[1,2-a]pyridin-2-yl)methyl]-N-methyl-5,6,7,8-tetrahydro-8-quinolinamine], the IC50 was less than 0.1 µM in the data set with HIV, 0.065 µM in the data set with HIV-1 IIIB, 0.0389 µM at human CXCR4 and 0.148 µM in data set [2]. Besides, the IC50 at 96 h in data set [1] was more than 100 µM.

For `CN(Cc1cn2c(-c3ccncc3)cccc2n1)C1CCCc2cccnc21` (centres unmarked) [Example 19, N-Methyl-N-{[5-(4-pyridinyl)imidazo[1,2-a]pyridin-2-yl]methyl}-5,6,7,8-tetrahydro-8-quinolinamine], the IC50 was 0.1 to 0.5 µM with HIV, 0.28 µM with HIV-1 IIIB, 0.0204 µM on human CXCR4 and 3.16 µM in data set [2]. Further, in data set [1], the IC50 at 96 h is more than 100 µM.
